Values of other authors in paper PMC2602858 (Cancer epidemiology, biomarkers & prevention : a …, 2008).

Tests used:
[1] = humans, plasma
women = settings: I3C 200 and 400 mg twice daily for 4 weeks
CYP1A2 = settings: I3C 400 mg twice daily, four weeks
[2] = test system: urinary 2-hydroxyestrone: 16α-hydroxyestrone ratio; settings: four weeks

For `OCc1c[nH]c2ccccc12` [I3C, indole-3-carbinol], the “circulating products detected after oral I3C” value [1] is listed as “the only detectable circulating product was DIM”, the adverse effects (women) is listed as “no adverse effects were reported or observed” and the “effect on CYP1A2” value (CYP1A2) is listed as “marked induction”. For the same compound, the “change of estrone hydroxylation ratio” value ([2]; I3C 200 mg twice daily) was “change in the estrone hydroxylation ratio was obtained” and the “change of urinary 2-hydroxyestrone: 16α-hydroxyestrone ratio” value ([2]; I3C 400 mg twice daily) was “doubling”.
